ChEMBL document CHEMBL1201862, “PubChem BioAssay data set” (2004)
Active and inactive are the calls of the source.

What was measured:
[1] = biological target: T1, SUMO-activating enzyme (Homo sapiens, UniProt Q9UBT2); test: SUMOylation inhibitor hit validation, confirmation, SUMOylation inhibitor project, biochemical, AlphaScreen (AID 2018); type: functional
[2] = biological target: T1, SUMO-activating enzyme; test: inhibitors of in vitro SUMOylation cascade, primary screen, biochemical, HTRF, uHTS (AID 2006); type: protein-complex assay
[3] = biological target: T2, Heat shock factor protein 1 (Mus musculus, UniProt P38532); test: HSF1 potentiators in luciferase reporter cells, confirmation, cell-based, NIH3T3, luminescence, dose retest (AID 435004); type: functional;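 further: stress induced by proteasome inhibitor MG132 added 30 min after compound; luciferase reporter driven by HSF1 response element in NIH3T3 cells; actives raise luminescence as potentiators of the MG132 stress response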
T2 sequence (P38532 whole entry): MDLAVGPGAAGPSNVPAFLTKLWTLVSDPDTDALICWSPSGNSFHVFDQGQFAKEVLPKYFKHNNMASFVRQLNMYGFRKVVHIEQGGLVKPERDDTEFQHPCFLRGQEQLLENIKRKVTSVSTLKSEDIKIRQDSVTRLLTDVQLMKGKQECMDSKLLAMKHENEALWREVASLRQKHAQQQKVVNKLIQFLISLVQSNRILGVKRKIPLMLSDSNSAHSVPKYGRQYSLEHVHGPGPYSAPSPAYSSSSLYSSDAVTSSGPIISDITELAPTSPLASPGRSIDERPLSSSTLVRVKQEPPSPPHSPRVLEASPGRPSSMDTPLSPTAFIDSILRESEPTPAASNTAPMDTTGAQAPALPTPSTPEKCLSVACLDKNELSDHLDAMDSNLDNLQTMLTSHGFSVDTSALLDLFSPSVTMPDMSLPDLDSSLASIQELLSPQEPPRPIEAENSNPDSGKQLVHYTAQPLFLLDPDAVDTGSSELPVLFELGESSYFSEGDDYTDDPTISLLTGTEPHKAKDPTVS

[4] = biological target: T3, Carboxy-terminal domain RNA polymerase II polypeptide A small phosphatase 1 (Homo sapiens, UniProt Q9GZU7); test: inhibitors of CTDSP1, concentration-response testing, biochemical assay, absorbance-based, actives from ultra-high-throughput screening (AID 540297); type: functional
T3 sequence (Q9GZU7 whole entry): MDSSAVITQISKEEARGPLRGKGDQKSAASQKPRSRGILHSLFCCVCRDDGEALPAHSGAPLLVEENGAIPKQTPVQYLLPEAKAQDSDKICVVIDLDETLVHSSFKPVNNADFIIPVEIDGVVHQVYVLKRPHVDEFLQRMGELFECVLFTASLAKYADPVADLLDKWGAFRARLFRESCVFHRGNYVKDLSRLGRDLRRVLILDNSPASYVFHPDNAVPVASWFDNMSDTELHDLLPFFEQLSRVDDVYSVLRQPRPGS

[5] = biological target: Eukaryotic translation initiation factor 4E (Mus musculus, UniProt P63073); test: eIF4E–eIF4G protein interaction inhibitors, dose response, biochemical, TR-FRET (AID 855); type: functional;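 further: potency for disrupting eIF4E binding to eIF4GI seen as loss of FRET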
Chain of Eukaryotic translation initiation factor 4E (P63073 whole entry): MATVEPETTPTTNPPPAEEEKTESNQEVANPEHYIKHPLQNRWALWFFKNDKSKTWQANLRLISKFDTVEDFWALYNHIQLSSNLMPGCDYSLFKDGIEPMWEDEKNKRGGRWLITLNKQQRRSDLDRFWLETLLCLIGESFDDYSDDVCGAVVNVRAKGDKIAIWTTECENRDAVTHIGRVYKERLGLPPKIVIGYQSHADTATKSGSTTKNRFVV

[6] = cells; type: functional, cell-based
[7] = cells; type: functional, cell-based; remark: listed apart in the source
[8] = THP-1 cell cytotoxicity, dose response, cytotoxicity control for non-replicating M. tuberculosis project (AID 489025); type: functional
[9] = HepG2 cell cytotoxicity, dose response, cytotoxicity control for non-replicating M. tuberculosis project (AID 489018); type: functional; details: Mycobacterium tuberculosis
[10] = Vero E6 cell cytotoxicity, dose response, cytotoxicity control for non-replicating M. tuberculosis project, secondary assay (AID 492998); type: functional, VeroE6; details: Vero C1008
[11] = biological target: T4, Alkaline phosphatase, tissue-nonspecific isozyme (Homo sapiens, UniProt P05186); test: human TNAP enzyme inhibitors, SAR follow-up, biochemical, luminescent, dose response (AID 1056)
T4 sequence (P05186 whole entry): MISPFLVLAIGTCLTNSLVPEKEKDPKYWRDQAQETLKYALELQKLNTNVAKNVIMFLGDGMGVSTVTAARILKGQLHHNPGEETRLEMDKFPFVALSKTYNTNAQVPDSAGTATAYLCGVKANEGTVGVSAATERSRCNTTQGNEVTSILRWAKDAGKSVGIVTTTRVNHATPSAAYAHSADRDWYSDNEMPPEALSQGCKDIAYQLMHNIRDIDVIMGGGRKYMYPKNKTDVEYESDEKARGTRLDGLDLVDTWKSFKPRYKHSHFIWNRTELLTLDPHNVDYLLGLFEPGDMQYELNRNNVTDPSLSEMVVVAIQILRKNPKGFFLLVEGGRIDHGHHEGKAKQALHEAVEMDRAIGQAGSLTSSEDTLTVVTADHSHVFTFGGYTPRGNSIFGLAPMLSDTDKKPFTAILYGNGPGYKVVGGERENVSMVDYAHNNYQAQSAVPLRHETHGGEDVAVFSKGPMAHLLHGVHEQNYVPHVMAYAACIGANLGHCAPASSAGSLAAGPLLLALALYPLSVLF

[12] = biological target: Glyceraldehyde-3-phosphate dehydrogenase (Homo sapiens, UniProt P04406)
Chain of Glyceraldehyde-3-phosphate dehydrogenase (P04406 whole entry): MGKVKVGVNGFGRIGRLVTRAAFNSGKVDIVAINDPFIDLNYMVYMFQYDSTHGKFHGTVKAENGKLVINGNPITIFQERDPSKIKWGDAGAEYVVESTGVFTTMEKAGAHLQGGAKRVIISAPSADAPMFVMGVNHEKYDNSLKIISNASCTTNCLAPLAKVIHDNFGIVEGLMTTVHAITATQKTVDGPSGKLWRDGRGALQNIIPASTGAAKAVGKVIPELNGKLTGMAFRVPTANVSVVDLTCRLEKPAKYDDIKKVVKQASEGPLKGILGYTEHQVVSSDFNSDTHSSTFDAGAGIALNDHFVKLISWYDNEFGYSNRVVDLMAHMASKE

[13] = biological target: T5, Protein RecA (Mycobacterium tuberculosis, UniProt P9WHJ3); test: Fluorescence Cell-Free Homogeneous Dose Retest to Identify Inhibitors of RecA-Intein Splicing Activity. [Related pubchem assays (depositor defined):AID2097, AID2223, AID489010, AID492950]; type: functional
T5 sequence (P9WHJ3 whole entry): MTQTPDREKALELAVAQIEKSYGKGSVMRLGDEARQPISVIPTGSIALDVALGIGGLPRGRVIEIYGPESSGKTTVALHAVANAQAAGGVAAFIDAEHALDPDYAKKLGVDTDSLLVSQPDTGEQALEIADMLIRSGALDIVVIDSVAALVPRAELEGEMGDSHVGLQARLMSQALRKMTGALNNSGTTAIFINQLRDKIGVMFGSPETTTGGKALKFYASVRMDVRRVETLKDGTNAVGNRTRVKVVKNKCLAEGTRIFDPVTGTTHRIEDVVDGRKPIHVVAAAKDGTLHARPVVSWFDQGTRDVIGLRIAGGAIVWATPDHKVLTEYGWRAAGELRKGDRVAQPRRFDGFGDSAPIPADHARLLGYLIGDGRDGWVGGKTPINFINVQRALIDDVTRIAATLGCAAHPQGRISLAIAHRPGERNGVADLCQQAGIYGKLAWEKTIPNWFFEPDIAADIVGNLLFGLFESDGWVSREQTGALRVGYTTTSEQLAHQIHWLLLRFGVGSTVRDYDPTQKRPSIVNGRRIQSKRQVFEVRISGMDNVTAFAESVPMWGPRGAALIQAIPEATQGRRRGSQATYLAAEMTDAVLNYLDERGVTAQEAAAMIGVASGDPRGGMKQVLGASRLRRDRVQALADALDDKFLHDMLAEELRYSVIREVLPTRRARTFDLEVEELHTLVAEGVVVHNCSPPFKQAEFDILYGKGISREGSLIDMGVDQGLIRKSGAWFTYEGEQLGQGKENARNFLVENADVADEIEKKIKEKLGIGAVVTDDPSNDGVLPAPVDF

[14] = biological target: Induced myeloid leukemia cell differentiation protein Mcl-1 (Homo sapiens, UniProt Q07820); type: functional
Chain of Induced myeloid leukemia cell differentiation protein Mcl-1 (Q07820 whole entry): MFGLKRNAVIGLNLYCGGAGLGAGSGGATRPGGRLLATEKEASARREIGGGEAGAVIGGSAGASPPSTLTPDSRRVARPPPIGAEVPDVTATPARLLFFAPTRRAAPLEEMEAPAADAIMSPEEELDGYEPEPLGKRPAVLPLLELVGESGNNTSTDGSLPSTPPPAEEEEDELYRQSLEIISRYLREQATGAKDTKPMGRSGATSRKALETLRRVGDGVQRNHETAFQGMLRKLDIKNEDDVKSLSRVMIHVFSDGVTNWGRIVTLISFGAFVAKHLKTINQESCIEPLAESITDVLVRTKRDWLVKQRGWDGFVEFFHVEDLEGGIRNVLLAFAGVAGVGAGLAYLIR

[15] = biological target: T6, Replicative DNA helicase DnaB (Mycobacterium tuberculosis, UniProt P9WMR3); test: DnaB intein splicing inhibitors, dose response, biochemical, cell-free fluorescence (AID 449749); type: functional
T6 sequence (P9WMR3 whole entry): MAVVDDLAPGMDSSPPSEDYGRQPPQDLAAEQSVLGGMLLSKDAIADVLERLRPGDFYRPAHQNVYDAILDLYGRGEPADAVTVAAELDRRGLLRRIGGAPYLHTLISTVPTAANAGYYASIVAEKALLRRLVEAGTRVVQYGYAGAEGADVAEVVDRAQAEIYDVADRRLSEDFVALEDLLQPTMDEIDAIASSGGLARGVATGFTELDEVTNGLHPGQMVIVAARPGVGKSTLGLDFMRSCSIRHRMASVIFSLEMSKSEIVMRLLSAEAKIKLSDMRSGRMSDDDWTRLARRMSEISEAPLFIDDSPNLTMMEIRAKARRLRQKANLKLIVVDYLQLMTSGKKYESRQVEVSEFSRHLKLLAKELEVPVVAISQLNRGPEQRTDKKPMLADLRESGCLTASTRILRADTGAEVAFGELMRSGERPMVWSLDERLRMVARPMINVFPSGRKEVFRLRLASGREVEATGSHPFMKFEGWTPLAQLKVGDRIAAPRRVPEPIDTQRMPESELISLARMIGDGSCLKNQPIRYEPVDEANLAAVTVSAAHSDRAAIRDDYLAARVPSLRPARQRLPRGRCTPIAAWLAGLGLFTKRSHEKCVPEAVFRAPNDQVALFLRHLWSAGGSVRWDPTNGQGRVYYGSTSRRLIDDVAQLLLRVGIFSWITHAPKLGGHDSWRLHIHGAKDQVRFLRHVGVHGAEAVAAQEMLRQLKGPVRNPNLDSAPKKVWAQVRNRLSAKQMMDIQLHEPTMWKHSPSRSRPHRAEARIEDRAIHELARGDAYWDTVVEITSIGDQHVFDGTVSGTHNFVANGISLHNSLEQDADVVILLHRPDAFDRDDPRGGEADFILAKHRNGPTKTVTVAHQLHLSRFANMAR

[16] = HEp-2 cell cytotoxicity, dose response, cytotoxicity control for RSV inhibitor project, HTS (AID 2410); type: functional; details: human respiratory syncytial virus
[17] = biological target: T7, DNA repair protein RAD52 homolog (Homo sapiens, UniProt P43351); type: functional, biochemical
T7 sequence (P43351 whole entry): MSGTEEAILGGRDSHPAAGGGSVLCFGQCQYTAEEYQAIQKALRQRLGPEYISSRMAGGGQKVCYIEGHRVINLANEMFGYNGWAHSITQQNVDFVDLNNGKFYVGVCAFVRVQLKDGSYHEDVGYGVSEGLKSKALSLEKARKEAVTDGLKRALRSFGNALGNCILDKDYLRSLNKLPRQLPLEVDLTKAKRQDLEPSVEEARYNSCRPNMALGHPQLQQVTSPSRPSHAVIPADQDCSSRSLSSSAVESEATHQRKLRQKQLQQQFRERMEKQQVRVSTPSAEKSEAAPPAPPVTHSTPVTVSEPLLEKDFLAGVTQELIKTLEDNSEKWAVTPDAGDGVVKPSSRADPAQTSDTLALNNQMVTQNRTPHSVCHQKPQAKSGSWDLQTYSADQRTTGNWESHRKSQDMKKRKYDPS

[18] = biological target: T8, Bcl-2-related protein A1 (Mus musculus, UniProt Q07440); type: functional;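 further: confirmatory dose–response counterscreen on Bfl-1, used to check hits from a UBC13 polyubiquitin inhibitor campaign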
T8 sequence (Q07440 whole entry): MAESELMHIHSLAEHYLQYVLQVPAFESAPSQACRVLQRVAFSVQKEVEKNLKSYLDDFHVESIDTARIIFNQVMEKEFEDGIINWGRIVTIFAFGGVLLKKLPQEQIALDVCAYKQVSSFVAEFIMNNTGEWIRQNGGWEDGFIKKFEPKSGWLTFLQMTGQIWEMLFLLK

[19] = biological target: T9, Ubiquitin-conjugating enzyme E2 N (Homo sapiens, UniProt P61088); type: functional
T9 sequence (P61088 whole entry): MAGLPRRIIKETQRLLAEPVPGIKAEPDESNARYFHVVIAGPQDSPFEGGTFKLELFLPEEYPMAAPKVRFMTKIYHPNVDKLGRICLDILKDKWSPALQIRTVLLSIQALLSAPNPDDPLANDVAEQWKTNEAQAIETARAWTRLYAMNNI

[20] = biological target: T9, Ubiquitin-conjugating enzyme E2 N; type: functional; remark: listed apart in the source

T1 sequence (Q9UBE0 whole entry): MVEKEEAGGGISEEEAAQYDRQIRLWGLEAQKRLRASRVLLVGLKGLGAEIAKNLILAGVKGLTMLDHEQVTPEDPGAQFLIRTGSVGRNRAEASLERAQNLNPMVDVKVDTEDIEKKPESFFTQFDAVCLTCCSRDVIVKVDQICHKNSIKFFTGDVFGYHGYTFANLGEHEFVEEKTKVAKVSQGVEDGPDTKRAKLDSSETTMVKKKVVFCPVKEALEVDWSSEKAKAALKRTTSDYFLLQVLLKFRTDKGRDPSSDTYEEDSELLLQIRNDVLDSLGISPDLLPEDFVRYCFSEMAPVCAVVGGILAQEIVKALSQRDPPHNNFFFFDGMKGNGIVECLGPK
T1 sequence (Q9UBT2 whole entry): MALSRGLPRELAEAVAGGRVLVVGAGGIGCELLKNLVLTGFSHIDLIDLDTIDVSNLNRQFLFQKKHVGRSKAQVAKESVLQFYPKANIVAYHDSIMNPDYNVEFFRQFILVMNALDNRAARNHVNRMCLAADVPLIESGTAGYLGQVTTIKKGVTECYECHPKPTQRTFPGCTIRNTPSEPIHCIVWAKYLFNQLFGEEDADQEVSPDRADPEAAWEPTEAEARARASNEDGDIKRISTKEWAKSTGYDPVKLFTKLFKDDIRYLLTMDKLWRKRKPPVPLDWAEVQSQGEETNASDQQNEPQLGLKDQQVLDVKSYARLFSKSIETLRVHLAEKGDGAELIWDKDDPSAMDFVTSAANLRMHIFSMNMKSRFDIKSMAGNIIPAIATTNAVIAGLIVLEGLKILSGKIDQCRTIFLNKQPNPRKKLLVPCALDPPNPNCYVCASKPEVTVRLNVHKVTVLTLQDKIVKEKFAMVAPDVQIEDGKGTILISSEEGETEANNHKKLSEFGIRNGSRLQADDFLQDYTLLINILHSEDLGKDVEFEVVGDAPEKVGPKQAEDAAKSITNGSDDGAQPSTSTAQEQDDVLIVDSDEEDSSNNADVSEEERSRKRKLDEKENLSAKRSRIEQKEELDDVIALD

In the case of `O=C(N/N=C/c1ccc(-c2cccc([N+](=O)[O-])c2)o1)c1ccccc1O`, the IC50 [1] is reported as 16.3 µM (active), the IC50 [2] is reported as 15.9 µM (active) and the EC50 [3] is reported as > 260 µM (inactive). For the same compound, the IC50 [4] was 3.68 µM (active).

In the case of `O=C(N/N=C/c1ccc([N+](=O)[O-])o1)c1cc2c(ccc3ccccc32)o1`, the IC50 [5] is reported as 50 µM (inactive), the IC50 [1] is reported as 28.4 µM (active) and the IC50 [2] is reported as 11 µM (active).

With `O=C(CCc1ccccc1)N/N=C/c1cc(Br)ccc1O` the EC50 [6] was 261 µM (active), the EC50 [7] was 286 µM (active) and the CC50 [8] was 6.36 µM (active). The CC50 [9] was 13.5 µM (active) and the CC50 [10] was 12.3 µM (active).

With `O=S(=O)(Nc1ccncn1)c1ccccc1` the IC50 [11] was > 100 µM (inactive) and the IC50 [12] was > 100 µM (not active).

With `Nc1ccc(N)c(C(=O)O)c1` the IC50 [5] was 13.4 µM (active), the EC50 [13] was 3.76 µM (active) and the IC50 [14] was 1.59 µM (active). The AC50 [15] was 6.81 µM (active).

For `Cc1ccc(C2=NN(C(=O)CCC(=O)O)C(c3cn(-c4ccccc4)nc3-c3ccc(C)cc3)C2)cc1` (stereo unspecified), the CC50 [16] was 24.8 µM (active), the IC50 [1] was 4.8 µM (active) and the IC50 [2] was 20.1 µM (active).

In the case of `COC(=O)c1cc(-c2ccc(OC)cc2)[nH]n1`, the IC50 [11] is reported as 2.33 µM (active) and the IC50 [12] is reported as > 100 µM (not active).

In the case of `CN1CCN(CCCNC(=O)c2ccc(/C=C3\Sc4ccccc4N(Cc4ccc(F)cc4)C3=O)cc2)CC1`, the IC50 [5] is reported as 50 µM (inactive) and the AC50 [17] is reported as 8.2 µM (active).

For `Cc1ccccc1C(=O)N1CCN(c2ccc(NC(=S)NC(=O)c3cccs3)cc2)CC1`, the IC50 [18] was > 20 µM (inactive), the IC50 [19] was 15.6 µM (active) and the IC50 [20] was 10.8 µM (active).

With `CC(OC(=O)c1cc(-c2ccc(Br)cc2)[nH]n1)C(=O)NC(C)(C)C` (stereo unspecified) the IC50 [11] was 19.5 µM (active) and the IC50 [12] was > 100 µM (not active).

In the case of `CCC(OCC(O)CN1CCN(CCN2C(=O)c3cccc4cccc(c34)C2=O)CC1)c1ccccc1` (stereo unspecified), the IC50 [18] is reported as > 20 µM (inactive), the IC50 [19] is reported as 9.26 µM (active) and the IC50 [20] is reported as 12.4 µM (active).

In the case of `COc1ccc(Cn2c(SCC(=O)NCc3ccco3)nc3ccsc3c2=O)cc1`, the IC50 [18] is reported as > 20 µM (inactive), the IC50 [19] is reported as 14.4 µM (active) and the IC50 [20] is reported as 10.4 µM (active).
